The values that follow come from patent US7868005B2, “Pyrazinyl substituted piperazine-piperidines with CXCR3 antagonist activity” (Schering Corporation, priority 2005, dated 2011).

This assay deals with T1, human CXCR3 (N-delta 4) (Homo sapiens, UniProt P49682).
T1 construct: CD8 leader (N); Flag; expressed in transfected cells; membranes prepared
T1 sequence (P49682 5-368 limits assumed): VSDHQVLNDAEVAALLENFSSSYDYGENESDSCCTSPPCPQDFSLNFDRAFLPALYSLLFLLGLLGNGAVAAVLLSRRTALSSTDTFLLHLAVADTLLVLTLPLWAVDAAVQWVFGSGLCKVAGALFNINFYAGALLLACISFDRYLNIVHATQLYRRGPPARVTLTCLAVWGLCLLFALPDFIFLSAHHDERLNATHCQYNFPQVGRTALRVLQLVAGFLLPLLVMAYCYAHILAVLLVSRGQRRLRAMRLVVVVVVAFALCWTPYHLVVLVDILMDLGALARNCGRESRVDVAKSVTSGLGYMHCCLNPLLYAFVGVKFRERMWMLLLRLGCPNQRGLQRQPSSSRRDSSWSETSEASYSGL
Kind of assay: Human CXCR3 (N-delta 4) Scintillation Proximity Assay (SPA), [125I] IP-10 binding to Ba/F3-hCXCR3 membranes. (In general: Scintillation proximity formats need no separation of bound from free tracer.)

Setting [1] is: IC50 rating, Table 1, read-out: IC50.

Structures are written as SMILES. Where two headings read alike, the source gives them in different places. Some results are limits rather than exact numbers.

With `CC[C@H]1CN(c2nc(N)c(C(=O)NCCO)nc2Cl)CCN1C1CCN(Cc2ccc(O)c(F)c2)CC1` [compound 427], the IC50 (usually the concentration that inhibits the measured activity by half) under setting [1] is above 100 nM.

With `CC[C@H]1CN(c2nc(N)c(C(N)=O)nc2Cl)CCN1C1CCN(Cc2ccc(Cl)cc2CC(=O)N2CC[C@H](O)C2)CC1` [compound 48], under setting [1], the IC50 was above 100 nM.

In the case of `CC[C@H]1CN(c2nc(N)c(C(N)=O)nc2Cl)CCN1C1CCN(Cc2ccc(Cl)cc2)[C@H](C(N)=O)C1` (stereo partly shown) [compound 282], under setting [1], the IC50 fell in the range of 25 to 100 nM.

With `CC[C@H]1CN(c2nc(N)c(C(=O)NCCNC(=O)OC(C)(C)C)nc2Cl)CCN1C1CCN(Cc2ccc(Cl)cc2C#N)CC1` [compound 235], the IC50 under setting [1] is above 100 nM.

As to `CC[C@H]1CN(c2nc(N)c(C(=O)OC)nc2Cl)CCN1C1CCN(Cc2ccc(Cl)cc2OCCNC(=O)NC(C)(C)C)CC1` [compound 297], the IC50 under setting [1] was 25 to 100 nM.

Turning to `CC[C@H]1CN(c2nc(N)c(C(=O)NC)nc2Cl)CCN1C1CCN([C@@H](CO)c2ccc(Cl)cc2)CC1` [compound 62], the IC50 under setting [1] is below 25 nM.

As for `CC[C@H]1CN(c2nc(N)c(C(=O)NCCO)nc2Cl)CCN1C1CCN(Cc2ccc(Cl)cc2C(C)C(=O)OC)CC1` (stereo partly shown) [compound 194], the IC50 under setting [1] is above 100 nM.

In the case of `CC[C@H]1CN(c2ncc(C(N)=O)nc2C)CCN1C1CCN(C(=O)c2ccc(F)c(F)c2)CC1` [compound 408], the IC50 under setting [1] fell in the range of 25 to 100 nM.

On to `CC[C@H]1CN(c2nc(N)c(C(=O)NC3CC3)nc2Cl)CCN1C1CCN(Cc2ccc(Cl)cc2C#N)CC1` [compound 88], for which the IC50 under setting [1] was below 25 nM.

For the molecule `CC[C@H]1CN(c2ncc(C(N)=O)nc2C)CCN1C1CCN(Cc2ccc(C)c(F)c2)CC1` [compound 433], under setting [1], the IC50 was below 25 nM.

Consider `CC[C@H]1CN(c2nc(N)c(C(=O)N[C@H](C)CO)nc2Cl)CCN1C1CCN(C(=O)c2ccc(Cl)cc2)CC1` [compound 335], for which the IC50 under setting [1] was below 25 nM.

Take `CC[C@H]1CN(c2nc(N)c(C(N)=O)nc2Cl)CCN1C1CCN(Cc2ccc(Cl)cc2-c2nnn[nH]2)CC1` [compound 23]: the IC50 under setting [1] lay within 25 to 100 nM.

As to `CC[C@H]1CN(c2nc(N)c(C(=O)NCCO)nc2Cl)CCN1C1CCN(Cc2ccc(C(=O)OC)cc2)CC1` [compound 117], the IC50 under setting [1] is below 25 nM.

`CC[C@H]1CN(c2cnc(C(=O)OC(C)C)c(N)n2)CCN1C1CCN(Cc2ccc(Cl)cc2)CC1` [compound 311]: under setting [1], the IC50 was above 100 nM.

Take `CC[C@H]1CN(c2ncc(C(=O)NC3CC3)nc2C)CCN1C1CCN([C@@H](CO)c2ccc(Cl)cc2)CC1` [Formula 12]: for the setting “human, read-out: human IC50”, the IC50 is below 1 nM.

Turning to `CC[C@H]1CN(c2nc(N)c(C(=O)NCCO)nc2Cl)CCN1C1CCN(Cc2cc(F)c(Cl)cc2OCCCO)CC1` [compound 139], the half-inhibitory concentration (IC50) under setting [1] was below 25 nM.

Turning to `CC[C@H]1CN(c2nc(N)c(C(N)=O)nc2Cl)CCN1C1CCN(Cc2ccc(Cl)cc2C2COC(=O)O2)CC1` (stereo partly shown) [compound 375], the IC50 under setting [1] lay within 25 to 100 nM.

With `CC[C@H]1CN(c2ncc(C(=O)NC3CC3)nc2C)[C@H](C)CN1C1CCN([C@H](CO)c2ccc(Cl)cc2)CC1` [compound 481], the IC50 under setting [1] was below 25 nM.

Turning to `CC[C@H]1CN(c2nc(N)c(C(=O)NC)nc2Cl)CCN1C1CCN(CCCC(=O)c2ccc(Cl)cc2)CC1` [compound 73], the IC50 under setting [1] is 25 to 100 nM.

Take `CC[C@H]1CN(c2ncc(C(N)=O)nc2C)[C@H](C)CN1C1CCN(Cc2ccc(F)cc2)CC1` [compound 432]: the IC50 under setting [1] is below 25 nM.

Turning to `CC[C@H]1CN(c2nc(N)c(C(=O)NCCNC(C)=O)nc2Cl)CCN1C1CCN(Cc2ccc(Cl)cc2)CC1` [compound 230], under setting [1], the IC50 was below 25 nM.

Turning to `CC[C@H]1CN(c2nc(N)c(C(=O)NC)nc2Cl)CCN1C1CCN(Cc2ccc(Cl)cc2)CC1` [compound 61], the IC50 under setting [1] was below 25 nM.

As for `CC[C@H]1CN(c2nc(N)c(C(=O)NCCO)nc2Cl)CCN1C1CCN(C(CCOC)c2ccc(Cl)cc2)CC1` (stereo partly shown) [compound 187], the IC50 under setting [1] lay within 25 to 100 nM.

`CC[C@H]1CN(c2ncc(C(N)=O)nc2C)CCN1C1CCN([C@@H](CO)c2ccc(Cl)cc2)CC1` [compound 443]: under setting [1], the IC50 is below 25 nM.

For `CC[C@H]1CN(c2nc(N)c(C(N)=O)nc2Cl)CCN1[C@H]1CCN(Cc2ccc(Cl)cc2)C[C@@H]1O` [compound 283], the IC50 under setting [1] is above 100 nM.

On to `CC[C@H]1CN(c2cnc(C(N)=O)cn2)CCN1C1CCN(Cc2ccc(Cl)cc2)CC1` [compound 425], for which, under setting [1], the IC50 was above 100 nM.

`CC[C@H]1CN(c2ncc(C(N)=O)nc2C)[C@H](C)CN1C1CCN(Cc2ccc(C#N)cc2)CC1` [compound 434]: the IC50 under setting [1] is below 25 nM.

`CC[C@H]1CN(c2nc(N)c(C(=O)NCCNS(N)(=O)=O)nc2Cl)CCN1C1CCN(Cc2ccc(Cl)cc2C#N)CC1` [compound 267]: the IC50 under setting [1] is below 25 nM.

Turning to `CCNC(=O)c1cnc(N2C[C@H](CC)N(C3CCN(C(=O)c4ccc(Cl)cc4)CC3)C[C@H]2C)c(Cl)n1` [compound 474], the IC50 under setting [1] is below 25 nM.

For `CC[C@H]1CN(c2nc(N)c(C(=O)NCCCN3CCCS3(=O)=O)nc2Cl)CCN1C1CCN(Cc2ccc(C#N)cc2)CC1` [compound 275], the IC50 under setting [1] is above 100 nM.

Consider `CC[C@H]1CN(c2nc(N)c(C(=O)NC)nc2Cl)CCN1C1CCN(Cc2ccc(C#N)cc2)CC1` [compound 64], for which, under setting [1], the IC50 is below 25 nM.

As to `CC[C@H]1CN(c2nc(N)c(C(=O)NCCO)nc2Cl)CCN1C1CCN(C(c2ccc(Cl)cc2)c2nccs2)CC1` (stereo partly shown) [compound 207], under setting [1], the IC50 was above 100 nM.

On to `CC[C@H]1CN(c2nc(N)c(C(=O)NCCNS(C)(=O)=O)nc2Cl)CCN1C1CCN(Cc2ccc(Cl)cc2)CC1` [compound 245], for which the IC50 under setting [1] was below 25 nM.

As to `CC[C@H]1CN(c2nc(N)c(C(N)=O)nc2Cl)CCN1C1CCN(Cc2ccc(Cl)cc2CCNC(=O)OC(C)(C)C)CC1` [compound 13], the IC50 under setting [1] is below 25 nM.

For `CC[C@H]1CN(c2nc(N)c(C(=O)NCCO)nc2Cl)CCN1C1CCN(Cc2ccc(Cl)cc2C(C)C(=O)O)CC1` (stereo partly shown) [compound 202], the half-maximal inhibitory concentration (IC50) under setting [1] is above 100 nM.

Regarding `CC[C@H]1CN(c2nc(N)c(C(=O)NCCO)nc2Cl)CCN1C1CCN(Cc2ccc(OC(F)(F)F)cc2OCCO)CC1` [compound 168], under setting [1], the IC50 was below 25 nM.

`CC[C@H]1CN(c2nc(N)c(C(=O)NCCO)nc2Cl)CCN1C1CCN(C(CCN)c2ccc(Cl)cc2)CC1` (stereo partly shown) [compound 199]: under setting [1], the IC50 is above 100 nM.

For the molecule `CC[C@H]1CN(c2nc(N)c(C(=O)OC)nc2Cl)CCN1C1CCN(C(=O)c2ccc(Cl)cc2C(C)C#N)CC1` (stereo partly shown) [compound 372], the IC50 under setting [1] is above 100 nM.

With `CC[C@H]1CN(c2nc(N)c(C(=O)N3CCN(C(=O)OC(C)(C)C)CC3)nc2Cl)CCN1C1CCN(Cc2ccc(Cl)cc2)CC1` [compound 312], the IC50 under setting [1] was above 100 nM.

`CC[C@H]1CN(c2ncc(C(N)=O)nc2C)[C@H](C)CN1C1CCN(C(=O)c2ccc(Cl)cc2)CC1` [compound 417]: the IC50 under setting [1] is below 25 nM.

In the case of `CC[C@H]1CN(c2nc(N)c(C(N)=O)nc2Cl)CCN1C1CCN(Cc2ccc(OC(F)(F)F)cc2)CC1` [compound 9], the IC50 under setting [1] is below 25 nM.

On to `CC[C@H]1CN(c2nc(N)c(C(=O)NCCNS(C)(=O)=O)nc2Cl)CCN1C1CCN(Cc2ccc(Cl)cc2N2CC[C@@H](O)C2)CC1` [compound 248], for which the IC50 under setting [1] was in the range of 25 to 100 nM.

For the molecule `CC[C@H]1CN(c2ncc(C(=O)NC3CC3)nc2C)CCN1C1CCN(C(=O)c2ccc(F)c(OC)c2)CC1` [compound 467], the IC50 under setting [1] was below 25 nM.

Consider `CC[C@H]1CN(c2nc(N)c(C(N)=O)nc2Cl)CCN1C1CCN(Cc2ccc(Cl)cc2C(NC(C)=O)C(N)=O)CC1` (stereo partly shown) [compound 382], for which the IC50 under setting [1] was above 100 nM.

In the case of `CC[C@H]1CN(c2ncc(C(=O)NC)nc2C)CCN1C1CCN(C(=O)c2ccc(Cl)c(F)c2)CC1` [compound 454], under setting [1], the IC50 was below 25 nM.

As to `CC[C@H]1CN(c2nc(N)c(C(=O)NCCO)nc2C)[C@H](C)CN1C1CCN(C(=O)c2ccc(Cl)cc2)CC1` [compound 482], the IC50 under setting [1] was below 25 nM.

Regarding `CC[C@H]1CN(c2nc(N)c(C(=O)NCCO)nc2Cl)CCN1C1CCN(Cc2ccc(Cl)cc2C(=O)N2CCOCC2)CC1` [compound 197], the IC50 under setting [1] was above 100 nM.

Regarding `CC[C@H]1CN(c2nc(N)c(C(=O)NC3CC3)nc2Cl)CCN1C1CCN(Cc2ccc(C#N)cc2OCCN2CCCC2=O)CC1` [compound 93], under setting [1], the IC50 was below 25 nM.

`CC[C@H]1CN(c2ncc(C(=O)NC3CC3)nc2C)CCN1C1CCN(C(=O)c2ccc(F)cc2F)CC1` [compound 462]: the IC50 under setting [1] was below 25 nM.

Regarding `CC[C@H]1CN(c2nc(N)c(C(=O)NNC(=S)NC)nc2Cl)CCN1C1CCN(Cc2ccc(Cl)cc2)CC1` [compound 270], the IC50 under setting [1] was below 25 nM.

As for `CC[C@H]1CN(c2nc(N)c(C(=O)NCCO)nc2Cl)CCN1C1CCN(Cc2ccc(F)cc2)CC1` [compound 133], the IC50 under setting [1] was below 25 nM.

For `CC[C@H]1CN(c2nc(N)c(C(=O)NCCO)nc2Cl)CCN1C1CCN(C(Cc2nn[nH]n2)c2ccc(Cl)cc2)CC1` (stereo partly shown) [compound 204], the 50% inhibitory concentration (IC50) under setting [1] was above 100 nM.

On to `CC[C@H]1CN(c2nc(N)c(C(N)=O)nc2Cl)CCN1C1(C)CCN(Cc2ccc(Cl)cc2C(N)=O)CC1` [compound 281], for which the IC50 under setting [1] is above 100 nM.

On to `CC[C@H]1CN(c2nc(N)c(C(=O)NC)nc2Cl)CCN1C1CCN(Cc2ccc(Cl)cc2)CC1` [Formula 9], for which the IC50 (human, read-out: human IC50) is below 1 nM.

Take `C[C@@H]1CN(C2CCN(Cc3ccc(Cl)cc3F)CC2)[C@@H](C)CN1c1cnc(C(=O)NC2CC2)cn1` [compound 94]: the IC50 under setting [1] lay in the range of 25 to 100 nM.

As to `CC[C@H]1CN(c2ncc(C(=O)NC3CC3)nc2C)CCN1C1CCN(Cc2ccc(C)cc2)CC1` [compound 439], under setting [1], the IC50 is below 25 nM.

As for `CC[C@H]1CN(c2nc(N)c(C(=O)NC3CCOC3=O)nc2Cl)CCN1C1CCN(Cc2ccc(Cl)cc2)CC1` (stereo partly shown) [compound 278], the IC50 under setting [1] was below 25 nM.

In the case of `CC[C@H]1CN(c2ncc(C(N)=O)nc2C)CCN1C1CCN(C(C(=O)OC)c2ccc(Cl)cc2)CC1` (stereo partly shown) [compound 464], the IC50 under setting [1] is below 25 nM.
